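Each compound was tested at five concentrations against cells in 96-well plates for 48 hours. The concentration for 50% growth inhibition is given as GI50. The concentration for full growth arrest is given as TGI.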
Columns and labels:
Experiment in all cases: NCI-60 cell line screen, 48 h
786-0 renal = test system: 786-0 renal
EKVX NSCLC = test system: EKVX NSCLC
HOP-62 NSCLC = test system: HOP-62 NSCLC
KM12 colon = test system: KM12 colon
OVCAR-3 ovarian = test system: OVCAR-3 ovarian
OVCAR-8 ovarian = test system: OVCAR-8 ovarian
SNB-19 CNS = test system: SNB-19 CNS
DU-145 prostate = test system: DU-145 prostate
MCF7 breast = test system: MCF7 breast
MDA-MB-231 breast = test system: MDA-MB-231 breast

`CCc1cccc(C(C)C)c1N1C(=O)C(=O)C(c2nc3ccccc3s2)C(=O)C1=O` was tested, and the TGI (786-0 renal) was over 50 µM, the TGI (EKVX NSCLC) was over 50 µM and the TGI (HOP-62 NSCLC) was over 50 µM. It also gave a TGI (KM12 colon) of over 50 µM, a TGI (OVCAR-3 ovarian) of over 43.1 µM and a TGI (OVCAR-8 ovarian) of over 50 µM. For the same compound, the TGI (SNB-19 CNS) was over 50 µM.
For `C1CCN(c2nc(=[N+]3CCCCC3)ss2)CC1`, the TGI (786-0 renal) was over 100 µM, the TGI (EKVX NSCLC) was over 100 µM and the TGI (HOP-62 NSCLC) was over 100 µM. For the same compound, the TGI (KM12 colon) was over 100 µM, the TGI (OVCAR-8 ovarian) was over 100 µM and the TGI (SNB-19 CNS) was over 100 µM.
`O=C(Nc1nc2ncn(CCNCc3ccccc3)c2c(=O)[nH]1)c1ccccc1` showed a TGI (786-0 renal) of over 100 µM, a TGI (EKVX NSCLC) of over 100 µM and a TGI (HOP-62 NSCLC) of over 100 µM. It also gave a TGI (KM12 colon) of over 100 µM, a TGI (OVCAR-3 ovarian) of over 100 µM and a TGI (OVCAR-8 ovarian) of over 100 µM.
In the case of `CC1C[C@@H]2C(=O)NC(=O)[C@@H]2c2c1c1ccccc1n2C` (stereo not given in full), the TGI (786-0 renal) is reported as over 100 µM, the TGI (EKVX NSCLC) is reported as over 100 µM and the TGI (HOP-62 NSCLC) is reported as over 100 µM. For the same compound, the TGI (KM12 colon) was over 100 µM, the TGI (OVCAR-3 ovarian) was over 100 µM and the TGI (OVCAR-8 ovarian) was over 100 µM. It also gave a TGI (SNB-19 CNS) of over 100 µM.
With `COc1cc2c3c(n(CCCI)c(=O)c2cc1OC)-c1cc2c(cc1C3=O)OCO2` the GI50 (786-0 renal) was 1.37 µM, the TGI (786-0 renal) was over 100 µM and the GI50 (DU-145 prostate) was 2.28 µM. For the same compound, the TGI (DU-145 prostate) was over 100 µM, the GI50 (HOP-62 NSCLC) was 4.45 µM and the TGI (HOP-62 NSCLC) was over 100 µM. It also gave a GI50 (KM12 colon) of 7.4 µM, a TGI (KM12 colon) of over 100 µM and a GI50 (MCF7 breast) of 0.404 µM. For the same compound, the TGI (MCF7 breast) was 6.01 µM, the GI50 (MDA-MB-231 breast) was 18.7 µM and the TGI (MDA-MB-231 breast) was over 100 µM. The GI50 (OVCAR-3 ovarian) was 11.2 µM, the TGI (OVCAR-3 ovarian) was over 100 µM and the GI50 (OVCAR-8 ovarian) was 3.16 µM. For the same compound, the TGI (OVCAR-8 ovarian) was 81.8 µM, the GI50 (SNB-19 CNS) was over 100 µM and the TGI (SNB-19 CNS) was over 100 µM.
With `O=C(Cn1ccnc1[N+](=O)[O-])c1ccc(F)cc1` the TGI (786-0 renal) was over 100 µM, the TGI (EKVX NSCLC) was over 100 µM and the TGI (HOP-62 NSCLC) was over 100 µM. For the same compound, the TGI (KM12 colon) was over 100 µM, the TGI (OVCAR-3 ovarian) was over 100 µM and the TGI (OVCAR-8 ovarian) was over 100 µM. For the same compound, the TGI (SNB-19 CNS) was over 100 µM.
Work on `O=[N+]([O-])c1cccc(C2ON2C2CCCCC2)c1` (stereo not given) yielded a TGI (786-0 renal) of 31.2 µM, a TGI (EKVX NSCLC) of over 100 µM and a TGI (HOP-62 NSCLC) of 81.3 µM. The TGI (KM12 colon) was 21 µM, the TGI (OVCAR-3 ovarian) was 34.6 µM and the TGI (OVCAR-8 ovarian) was 32.8 µM. The TGI (SNB-19 CNS) was 84.5 µM.
Work on `CC(C)(C)c1cc2c3c(c1)C(C(F)(F)F)(C(F)(F)F)O[Te]3(C)OC2(C(F)(F)F)C(F)(F)F` yielded a TGI (786-0 renal) of over 100 µM, a TGI (EKVX NSCLC) of over 100 µM and a TGI (HOP-62 NSCLC) of over 100 µM. For the same compound, the TGI (KM12 colon) was over 100 µM, the TGI (OVCAR-3 ovarian) was over 100 µM and the TGI (SNB-19 CNS) was over 100 µM.
`NCCCNCCCCN(CCCN)/[N+]([O-])=N\O` gave a TGI (786-0 renal) of over 100 µM, a TGI (EKVX NSCLC) of over 100 µM and a TGI (HOP-62 NSCLC) of over 100 µM. The TGI (KM12 colon) was over 100 µM, the TGI (OVCAR-3 ovarian) was over 100 µM and the TGI (OVCAR-8 ovarian) was over 100 µM. The TGI (SNB-19 CNS) was over 100 µM.
`S=c1cc(S)sc2c1c(=S)sc1nc3ccccn3c(=S)c12` showed a TGI (786-0 renal) of over 100 µM, a TGI (EKVX NSCLC) of over 100 µM and a TGI (KM12 colon) of over 100 µM. The TGI (OVCAR-3 ovarian) was over 100 µM, the TGI (OVCAR-8 ovarian) was over 100 µM and the TGI (SNB-19 CNS) was over 100 µM.
Work on `C[C@]1(CO)CCC[C@@]2(C)C1CC[C@H]1CC3C[C@]12CC[C@]3(C)O` (stereo not given in full) yielded a TGI (786-0 renal) of over 100 µM, a TGI (HOP-62 NSCLC) of over 100 µM and a TGI (KM12 colon) of over 100 µM. The TGI (OVCAR-3 ovarian) was over 100 µM, the TGI (OVCAR-8 ovarian) was over 100 µM and the TGI (SNB-19 CNS) was over 100 µM.
`CN1CCN(c2ccc3nc(-c4ccc5nc(-c6ccc(OCCC(C)(C)C)cc6)[nH]c5c4)[nH]c3c2)CC1` gave a GI50 (786-0 renal) of 2.7 µM, a TGI (786-0 renal) of 8.33 µM and a GI50 (DU-145 prostate) of 1.83 µM. The TGI (DU-145 prostate) was 3.4 µM, the GI50 (EKVX NSCLC) was 4.67 µM and the TGI (EKVX NSCLC) was 21.4 µM. For the same compound, the GI50 (HOP-62 NSCLC) was 7.1 µM, the TGI (HOP-62 NSCLC) was 26.8 µM and the GI50 (KM12 colon) was 1.91 µM. For the same compound, the TGI (KM12 colon) was 4.2 µM, the GI50 (MDA-MB-231 breast) was 2.85 µM and the TGI (MDA-MB-231 breast) was 5.83 µM. For the same compound, the GI50 (OVCAR-3 ovarian) was 5.22 µM, the TGI (OVCAR-3 ovarian) was 16.8 µM and the GI50 (OVCAR-8 ovarian) was 4.69 µM. It also gave a TGI (OVCAR-8 ovarian) of 18.6 µM, a GI50 (SNB-19 CNS) of 2.15 µM and a TGI (SNB-19 CNS) of 4.09 µM.
In the case of `COc1cc(Nc2ccnc(NCCCNc3ccnc4cc(Cl)ccc34)n2)cc(OC)c1`, the GI50 (786-0 renal) is reported as 1.59 µM, the TGI (786-0 renal) is reported as 3.12 µM and the GI50 (DU-145 prostate) is reported as 3.62 µM. The TGI (DU-145 prostate) was 12.2 µM, the GI50 (HOP-62 NSCLC) was 1.75 µM and the TGI (HOP-62 NSCLC) was 5.12 µM. It also gave a GI50 (KM12 colon) of 2.92 µM, a TGI (KM12 colon) of 9.46 µM and a GI50 (MCF7 breast) of 1.28 µM. For the same compound, the TGI (MCF7 breast) was 3 µM, the GI50 (MDA-MB-231 breast) was 1.5 µM and the TGI (MDA-MB-231 breast) was 3.16 µM. It also gave a GI50 (OVCAR-3 ovarian) of 1.95 µM, a TGI (OVCAR-3 ovarian) of 4.32 µM and a GI50 (OVCAR-8 ovarian) of 2.07 µM. The TGI (OVCAR-8 ovarian) was 5.65 µM, the GI50 (SNB-19 CNS) was 2.32 µM and the TGI (SNB-19 CNS) was 8 µM.
`Clc1ccc(C2SCc3nc4ccccc4n32)cc1Cl` (stereo not given) gave a TGI (786-0 renal) of 27.3 µM, a TGI (EKVX NSCLC) of 28.1 µM and a TGI (HOP-62 NSCLC) of 27.8 µM. It also gave a TGI (KM12 colon) of 27 µM, a TGI (OVCAR-3 ovarian) of 22.5 µM and a TGI (OVCAR-8 ovarian) of 26.9 µM. For the same compound, the TGI (SNB-19 CNS) was 22.4 µM.
`O=CC[C@H]1CCc2ccccc2C12CCC(=O)CC2` showed a TGI (786-0 renal) of over 100 µM, a TGI (HOP-62 NSCLC) of over 100 µM and a TGI (KM12 colon) of over 100 µM. For the same compound, the TGI (OVCAR-3 ovarian) was over 100 µM, the TGI (OVCAR-8 ovarian) was over 100 µM and the TGI (SNB-19 CNS) was over 100 µM.
Work on `Fc1ccc(Nc2nc3nonc3nc2Nc2ccc(F)cc2)cc1` yielded a GI50 (786-0 renal) of 0.509 µM, a TGI (786-0 renal) of 8.48 µM and a GI50 (DU-145 prostate) of 0.57 µM. It also gave a TGI (DU-145 prostate) of 15 µM, a GI50 (HOP-62 NSCLC) of 0.319 µM and a TGI (HOP-62 NSCLC) of 2.13 µM. It also gave a GI50 (KM12 colon) of 0.395 µM, a TGI (KM12 colon) of 10.6 µM and a GI50 (MCF7 breast) of 0.567 µM. It also gave a TGI (MCF7 breast) of 11.2 µM, a GI50 (MDA-MB-231 breast) of 0.493 µM and a TGI (MDA-MB-231 breast) of 4.25 µM. The GI50 (OVCAR-3 ovarian) was 0.371 µM, the TGI (OVCAR-3 ovarian) was 11 µM and the GI50 (OVCAR-8 ovarian) was 0.402 µM. For the same compound, the TGI (OVCAR-8 ovarian) was 15.4 µM, the GI50 (SNB-19 CNS) was 0.386 µM and the TGI (SNB-19 CNS) was 16.1 µM.
